From patent publication US7223733B2, “Modulation of TRIP-Br function and method of treating proliferative disorders” (National University of Singapore, priority 2004, dated 2007)
Where no end group is shown, it is not given here.

How the values were obtained:
[1] = system: caspase-3 protease activity; assay: Caspase assay with Ac-DEVD-AFC in U2OS cells; format: cell-based, human; settings: 50 μM decoy peptides, 48 or 72 h
Procedure: Caspase assay. Both adherent and detached cells in 6-well dishes were harvested by centrifugation at 2000 rpm for 15 min at 4° C. The resulting cell pellets were incubated in 50 μl of chilled lysis buffer (Clontech) on ice for 10 min. Cell lysates were incubated in a reaction mix containing 10 mM HEPES, 2.0 mM EDTA, 10 mM KCl, 1.5 mM MgCl2, 1.0 mM PMSF, aprotinine, pepstatin A and leupeptine (20 μM each), 6.0 mM DTT and Ac-DEVD-AFC (4.0 μg/ml). Reactions were allowed to proceed at room temperature. Fluorescence readings were taken at 15 min intervals for 1 h using a spectrofluorometer (excitation wavelength: 400 nm; emission wavelength: 505 nm).
FIG. 6: Caspase assay. (A) Caspase 3 protease activity in U2OS cells exposed to either Eto (Etoposide) for 24 h or 50 μM decoy peptides for 48 or 72 h, were assayed using the Ac-DEVD-AFC fluorogenic substrate. […] Values represent the average +/− standard deviation of two independent experiments. Control: cells cultured in normal growth medium; Vehicle: cells cultured in the presence of 0.5% DMSO; (B) Western blot analysis of PARP cleavage. U2OS cells were exposed to either Eto (Etoposide) for 24 h or 50 μM decoy peptides for 72 h. Lane 1: Vehicle cells (cultured in the presence of 0.5% DMSO for 24 h); Lane 2: 25 μM Eto; Lane 3: 250 μM Eto; Lane 4: Vehicle (cells cultured in the presence of 0.5% DMSO for 72 h); Lane 5: *SCR; Lane 6: *Br1; Lane 7: *Br2.

U2OS cells = assay: BrdU incorporation colorimetric ELISA in U2OS cells; format: cell-based, human; settings: for DNA synthesis activity (BrdU incorporation): U2OS, 50 μM, between 24 h and 48 h post-treatment; for ability to incorporate BrdU with increasing concentrations: U2OS, 5, 10, 20 or 50 μM, 48 h
Procedure: BrdU assay. U2OS cells grown in 96-well plates were exposed to either vehicle or decoy peptides. Bromodeoxyuridine (BrdU) incorporation was monitored with a colorimetric ELISA assay using a cell proliferation kit according to manufacturer's recommendations (Boehringer Mannheim).
FIG. 4: Time-dependent and dose-dependent anti-proliferative effects of the decoy peptides. (A) Time-dependent anti-proliferative effects of the decoy peptides. U2OS cells, exposed to either vehicle (0.5% DMSO) or 50 μM decoy peptides for either 24 or 48 h, were assayed for BrdU incorporation with a colorimetric ELISA assay. Values represent the average +/− standard deviation of two independent experiments; (B) Dose-dependent anti-proliferative effects of the decoy peptides. U2OS cells, exposed to 5, 10, 20 or 50 μM of *SCR (solid line and square), *Br1 (dashed line and triangle) or *Br2 (dashed line and circle) for 48 h, were assayed for BrdU incorporation with a colorimetric ELISA assay. Values represent the average +/− standard deviation of at least two independent experiments; (C) Cell proliferation analysis. Left panel: At 0, 48 and 72 h post decoy peptide treatment, total cell number was determined electronically using a Coulter® counter. Right panel: At 72 h post-treatment, cells were harvested and stained with trypan blue for viable cell count analysis.

[2] = system: KRIP-1/TRIP-Br PHD-bromodomain interaction; assay: Immunoprecipitation assay of GAL4-KRIP-1/TRIP-Br complex formation (in vitro translated proteins); format: binding; settings: 25 μM decoy peptides pre-incubated with GAL4-KRIP-1
Chain of KRIP-1/TRIP-Br PHD-bromodomain interaction (Q62318 621-811 limits assumed): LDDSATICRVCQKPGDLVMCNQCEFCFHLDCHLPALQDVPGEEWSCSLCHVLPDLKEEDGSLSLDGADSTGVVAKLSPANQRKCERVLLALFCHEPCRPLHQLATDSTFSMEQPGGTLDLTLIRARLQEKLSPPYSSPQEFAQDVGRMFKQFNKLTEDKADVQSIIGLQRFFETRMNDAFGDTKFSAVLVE
Procedure: Preparation of proteins by in vitro translation. In vitro translation (IVT) products were synthesized from pcDNA3/TRIP-Br1, pcDNA3/TRIP-Br2 and pBlueScript/GAL4-KRIP-1 using the TNT T7 coupled reticulocyte lysate system (Promega). The in vitro translation reactions were carried out in a total reaction volume of 50 μl by incubating 1.0 μg of the indicated DNA template in nuclease-free water with 30 μl of TNT Quick master mix in the presence of [^35S]-methionine (Met) at 30° C. for 90 minutes.
Immunoprecipitation assay (IP). The binding reactions for IP were performed by incubating 1.5 μl [^35S]-Met labeled GAL4 or GAL4-KRIP-1 IVT products with 3 μl [^35S]-Met labeled TRIP-Br1 or TRIP-Br2 IVT products in 1×IP buffer (Hsu, S. I. H., et al. EMBO J. 20, 2273-2285 (2001)) at 4° C. for 1 h. For the analysis of decoy peptide-mediated blocking activity, the GAL4-KRIP-1 IVT product was pre-incubated with 25 μM decoy peptides at 4° C. for 30 minutes prior to addition of full-length TRIP-Br1 or TRIP-Br2 IVT products. Protein complexes precipitated using agarose-conjugated anti-GAL4 antibody were resolved by SDS-PAGE and then processed for autoradiography.
FIG. 1: TRIP-Br decoy peptides antagonize KRIP-1/TRIP-Br PHD-bromodomain interactions. […] GAL4-KRIP-1 was specifically immunoprecipitated by the agarose-conjugated anti-GAL4 antibody (Lanes 3-5 & 7–10) but not by the non-specific control anti-cyclin E antibody (Lane 6); (B) Antagonism of PHD-bromodomain interactions in vivo. U2OS cells were transiently transfected with 0.4 μg of the indicated GAL4 expression constructs and 1.2 μg of pMT3A/KRIP-1, along with 0.4 μg of the minimal luciferase reporter pG5-GL3 and 0.1 μg of the control reporter pCMV/β-gal. The transfected cells were exposed to either vehicle (0.5% DMSO) or 50 μM of the indicated decoy peptides prior to harvesting for sequential assay of luciferase and galactosidase activity. Fold activation refers to luciferase activity normalized to β-galactosidase activity, and is expressed relative to the activity observed with transfection of the reporter alone. […]

Row | Sequence | caspase-3 protease activity in cell lysates [1] | DNA synthesis activity (BrdU incorporation) (U2OS cells) | GAL4-KRIP-1/TRIP-Br complex formation (co-IP of TRIP-Br1 or TRIP-Br2) [2] | ability to incorporate BrdU with increasing concentrations (U2OS cells)
1 | ERQIKIWFQNRRMKWKKGLDEDGLLLFCEGDTIAD (Peptide containing penetratin sequence from Drosophila and random peptide sequence) [*SCR, reference compound] | indistinguishable from the baseline activity | basal DNA synthesis rate similar to that of the vehicle-treated control cells | did not affect GAL4-KRIP-1/TRIP-Br complex formation | –
2 | ERQIKIWFQNRRMKWKKTGFLTDLTLDDILFADID (ERQIKIWFQNRRMKWKKTGFLTDLTLDDILFADID-NH2) [*Br2] | indistinguishable from the baseline activity | substantially reduced DNA synthesis activity | dramatically reduced the ability of GAL4-KRIP-1 to co-IP TRIP-Br1 or TRIP-Br2 | progressively reduced ability to incorporate BrdU
3 | ERQIKIWFQNRRMKWKKATGCLLDDGLEGLFEDID (ERQIKIWFQNRRMKWKKATGCLLDDGLEGLFEDID-NH2) [*Br1] | indistinguishable from the baseline activity | substantially reduced DNA synthesis activity | dramatically reduced the ability of GAL4-KRIP-1 to co-IP TRIP-Br1 or TRIP-Br2 | progressively reduced ability to incorporate BrdU
